Assay results from patent publication US20150274634A1, “COMPOUNDS FOR THE TREATMENT OF OBESITY AND METHODS OF USE THEREOF” (The Children's Medical Center Corporation, priority 2014, published 2015).

Columns and labels:
[1] = weight loss products; cited from earlier work
[2] = test system: HFD-fed obese mice; assay: Liver and kidney histology (H&E); assay type: in vivo; conditions: 100 μg/kg i.p., three weeks
[3] = test system: mice; assay: Locomotor activity (Comprehensive Lab Animal Monitoring System); assay type: in vivo
Procedure: FIGS. 16A and 16B are graphs showing x (FIG. 16A) and y (FIG. 16B) direction ambulatory motion for control and celastrol in dark and light cycles. Toxicity was evaluated using Columbus Instruments Comprehensive Lab Animal Monitoring System we have measure the locomotor activity of the animals.
Locomotor activity was also normal in celastrol-treated mice. This is consistent with celastrol not having a toxic effect causing anorexia and weight loss, since the latter would be associated with decreased locomotor activity.
FIGS. 16A and 16B are graphs showing x (FIG. 16A) and y (FIG. 16B) direction ambulatory motion for control and celastrol in dark and light 2 cycles. Toxicity was evaluated using Columbus Instruments Comprehensive Lab Animal Monitoring System we have measure the locomotor activity of the animals.

[4] = test system: alanine transaminase (ALT); assay: Serum ALT by ELISA; assay type: in vivo; conditions: HFD-fed obese mice; 100 μg/kg i.p., three weeks
Procedure: (§1) To investigate the effect of celastrol administration on liver function, serum levels of alanine transaminase (ALT) and aspartate transaminase (AST) were measured in mice following three weeks of celastrol treatment (100 μg/kg, i.p.). ALT and AST were measured using an enzyme-linked immunosorbent assay (ELISA) kit (from Bio Scientific).

[5] = test system: aspartate transaminase (AST); assay: Serum AST by ELISA; assay type: in vivo; conditions: HFD-fed obese mice; 100 μg/kg i.p., three weeks
Procedure: as §1

[6] = test system: lean mice; assay: Leptin injection upon acute celastrol treatment, lean mice; assay type: in vivo; conditions: 6-hour time point, leptin 10 mg/kg i.p., DMSO or celastrol 100 μg/kg i.p. pretreatment
Procedure: (§2) It was therefore hypothesized that celastrol exerts anti-obesity effects through increasing leptin sensitivity in the brains of the HFD-fed obese mice. To test this hypothesis, leptin was administered to celastrol- or vehicle-treated HFD-fed obese animals. To avoid any possible leptin sensitizing effect of weight loss or decreased food intake created by celastrol administration, leptin injections were carried out upon acute celastrol treatment as described below.
(§3) Lean and HFD-fed obese mice were divided into four groups: 1) DMSO+saline, 2) DMSO+leptin, 3) celastrol+saline, and 4) celastrol+leptin (n=3 per group). Mice were injected (i.p.) with 100 μg/kg celastrol or vehicle (DMSO) one hour before dark cycle (day zero). 24 hours later, mice were injected for a second time with celastrol or DMSO (day 1), and all animals were then taken to 24 hour-fasting. On day two, at 21 hours of fasting, mice received a final injection of DMSO or celastrol. 30 minutes prior to dark cycle, at 23.5 hour of fasting, mice received a single i.p. injection of leptin (10 mg/kg, dissolved in saline), or saline. […] 1, 3, 6, 15, and 24-hour food intake and 24-hour body weight changes were recorded (FIG. 7A). […] This is clearly evident when food intake of the celastrol-treated mice is calculated in percent values (FIG. 7B). […]

[7] = test system: HFD-fed obese mice; assay: Leptin injection upon acute celastrol treatment, HFD-fed obese mice; assay type: in vivo; conditions: leptin 10 mg/kg i.p.
Procedure: as §2, §3

## [Cr] [Chromium]
[1]
  Safety: Likely safe

## CC1=C(O)C(=O)C=C2C1=CC=C1[C@@]2(C)CC[C@@]2(C)[C@@H]3C[C@](C)(C(=O)O)CC[C@]3(C)CC[C@]12C [celastrol]
[2]
  kidney morphology: no detectable change
[3]; celastrol-treated mice
  locomotor activity: normal
[3]; dark and light cycles, celastrol versus control
  x and y direction ambulatory motion counts: not significantly different
[4]
  serum ALT level: decreases
[5]
  serum AST level: decreases

## Conjugated linoleic acid [Conjugated linoleic acid (CLA)]
[1]
  Effectiveness: Possibly effective
  Safety: Possibly safe

## leptin: peptide hormone, afferent signal in a negative feedback loop regulating food intake and body weight
[6]
  decrease in food intake upon leptin injection: approximately 40%
[7]; 6-hour time point, DMSO or celastrol 100 μg/kg i.p. pretreatment
  decrease in food intake upon leptin injection: approximately 40%
[7]; 24 hour ad libitum feeding after 24-hour fasting, celastrol 100 μg/kg i.p.
  24-hour body weight change: resistant
